Data published in patent publication US20230414571A1, “APPLICATION OF SMALL-MOLECULE COMPOUND IN PREPARATION OF ANTITUMOR DRUG” (SOOCHOW UNIVERSITY, priority 2021, published 2023).

Columns and labels:
[1] = biological target: T1, hexokinase 2 (HK2) (Homo sapiens, UniProt P52789); test: HK2 activity test on GLMSD platform (graphite dots MALDI-MS); assay type: biochemical
T1 sequence (P52789 1-917): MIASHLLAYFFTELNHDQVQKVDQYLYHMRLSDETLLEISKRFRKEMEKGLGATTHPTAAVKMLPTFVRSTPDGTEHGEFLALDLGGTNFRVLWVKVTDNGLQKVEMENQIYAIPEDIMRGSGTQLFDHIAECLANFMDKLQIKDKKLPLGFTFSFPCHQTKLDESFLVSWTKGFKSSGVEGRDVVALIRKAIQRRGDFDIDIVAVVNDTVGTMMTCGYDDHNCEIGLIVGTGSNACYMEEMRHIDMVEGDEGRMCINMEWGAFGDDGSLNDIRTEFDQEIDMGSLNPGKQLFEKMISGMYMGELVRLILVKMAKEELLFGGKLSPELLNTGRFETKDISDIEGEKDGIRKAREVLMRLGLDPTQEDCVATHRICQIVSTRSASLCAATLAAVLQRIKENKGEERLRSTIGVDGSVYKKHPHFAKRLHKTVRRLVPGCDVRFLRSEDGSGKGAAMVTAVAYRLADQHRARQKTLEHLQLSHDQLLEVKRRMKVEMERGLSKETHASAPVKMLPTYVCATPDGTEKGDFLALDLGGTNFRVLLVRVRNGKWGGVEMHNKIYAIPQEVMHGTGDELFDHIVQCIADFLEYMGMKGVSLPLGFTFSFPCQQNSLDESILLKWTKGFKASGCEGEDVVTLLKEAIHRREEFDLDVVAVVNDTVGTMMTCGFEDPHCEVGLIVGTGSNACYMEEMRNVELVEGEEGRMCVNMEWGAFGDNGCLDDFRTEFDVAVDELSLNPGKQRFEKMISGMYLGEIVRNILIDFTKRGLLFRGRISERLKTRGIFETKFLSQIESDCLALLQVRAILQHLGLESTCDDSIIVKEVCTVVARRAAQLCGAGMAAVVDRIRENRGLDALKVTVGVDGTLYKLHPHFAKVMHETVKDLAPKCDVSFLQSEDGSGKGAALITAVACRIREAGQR
Method: GDs were dispersed in water at a concentration of 1 mg/mL as a matrix solution to be used. A sample was prepared by using a quick-drying method: firstly, 1 μL of matrix solution was dropped onto a target plate, and after natural drying at a room temperature in a […], 1 μL of sample to be analyzed was dropped onto a surface of the dried matrix, and after the sample was naturally dried, mass spectrometry was directly performed:
An instrument in the MALDI-MS was a Bruker Ultraflex III TOF/TOF mass spectrometer, which was mainly in a reflection positive and negative ion mode. Nd of 355 nm for instrument parameter: YAG laser had laser energy of 30% corresponding to 57 μJ per pulse (laser pulse duration: 3 ns), a laser spot size was about 50-100 μm, each sample was repeatedly tested four times, and 3000 laser spots were accumulated in each mass spectrum. All samples were measured under the same instrumental conditions.
an inhibition rate=(1−B/A)×100%, where • A was: a glucose concentration in a pre-reaction solution without the inhibitor-a glucose concentration in a post-reaction solution without the inhibitor, • B was: a glucose concentration in a pre-reaction solution with the inhibitor-a glucose concentration in a post-reaction solution with the inhibitor, and • a glucose concentration in the reaction solution=(mass spectrum signal strength of [glucose+Na]+/mass spectrum signal strength of [glucose-1-^13C+Na]+)×known concentration of glucose-1-^13C.

[2] = Plasma pharmacokinetics in mice determined by GLMSD; assay type: in vivo, mouse; settings: mouse, in vivo, 40 mg/kg
Method: It can be seen from FIG. 8-1 that the GLMSD platform can specifically acquire the pharmacokinetic data of small-molecule compound 27. Competitive advantages of GLMSD in pharmacokinetic research: (1) a complete drug blood concentration curve of each individual may be tracked; and (2) the total number of mice used in the test is reduced. Since the blood sample consumption of the GLMSD method is low (10 μL of blood per time point), one mouse can be used for completing the entire pharmacokinetic curve (blood sampling at 11 time points within 24 hours, and the minimum interval being 0.25 hour) of a drug.
Based on the advantage that the complete PK curve can be tested by means of the GLMSD, we observe that 3 (#2, #3 and #4) in 8 mice have the characteristic re-absorption peak of this small-molecule inhibitor at the time point of 8 h, and such a characteristic re-absorption peak hardly exists in other 5 mice. This significant phenomenon is related to drug uptake differences between individuals, prompting that compound 27 may re-enter blood circulation by means of a secondary absorption pathway. In the mode of continuous multiple administration (c in FIG. 8-2), pharmacokinetic data of compound 27 (40 mg/kg) was collected from each mouse every day (1, 3, 6, and 8 hours after last administration) for 5 days. For a single dose (a in FIG. 8-2) or a continuous multi-dose (d in FIG. 8-2) administration manner, a limitation of a conventional LC-MS technology lies in obtaining a single data point of pharmacokinetics of a drug by sacrificing one mouse, whereas GLMSD can break through this limitation by providing a complete pharmacokinetic curve based on a single mouse.

[3] = system: U87 cell transplantation tumor (brain glioma); test: MSI imaging of drug in brain tissue section (blood-brain barrier penetration); assay type: in vivo; settings: MSI of brain tissue section with U87 glioma implant
Source text: FIG. 9 is an MSI image of a drug and a metabolite (compound 27: m/z 499, lactic acid: m/z 113) in a brain tissue section, where an optical micrograph of a serial section of H&E staining is used as a reference. The brain glioma and the lateral ventricle are represented by dashed lines, a color bar encodes signal strength of […] small molecules in […] (MSI), and the resolution is 10 μm.

[4] = system: U87 cells; test: Flow cytometry analysis of U87 cell apoptosis (Annexin V-FITC/PI staining); assay type: cell-based; settings: 20 μM, 24 hours
Method: In a dulbecco's modified eagle medium (DMEM), 5×10^5 U87 cells were inoculated into a 24-hole plate. After culturing for 24 hours, compound 27 (final concentration 20 μM) was directly added to a cell growth medium, incubated at 37° C. for 24 hours, briefly digested with trypsin, washed twice with cold PBS, centrifuged (2000 rpm, 5 min) and washed twice with cold PBS after a supernatant culture medium was discarded. The cells (1×10^5 cells/mL) were resuspended with a 400 μL of buffer solution (1×). 5 μL of Annexin V-FITC was added to the cell suspension and cultured at 4° C. for 15 minutes. Then, the cells were gently mixed with another dye propidium iodide (PI) (10 μL). The cells were collected for flow cytometry analysis. Data analysis was performed by using a CFLow Plus (Accuri Cytometers).
In order to further confirm the occurrence of apoptosis, the applicant tested the exposed phosphatidylserine by using an annexin V/propidium iodide double staining method, and observed a cell membrane damage phenomenon.

With CCOc1ccc(C(=O)NCCCN(C)CCCN(C)Cc2ccccc2)cc1Br [compound 27] the “inhibitory effect on the HK2” value ([1]; inhibition curves FIGS. 3-7, colorimetric kit and GLMSD) was “good inhibitory effects”, the inhibition at 20 µM ([1]; small-molecule concentration of the inhibitor 20 μM, GLMSD, read-out: inhibition rate of HK2 activity) was 31% and the AUC(0-t) [2] was 64400 ng·h/mL. For the same molecule, the Cmax [2] was 14600 ng/mL, the Tmax [2] was 2 h and the half-life [2] was 4.12 h. The “capacity of penetrating a blood-brain barrier” value [3] was “can break through the blood-brain barrier”, the “early (Annexin+/PI−) apoptotic cells” value [4] was 31.2% and the “late (Annexin+/PI+) apoptotic cells” value [4] was 30.6%.
